pEC50: −log10 of the molar value.
Each compound was assayed against AMPK (assay: AMPK activation, enzyme-linked immunosorbent assay). Settings: EC50 for AMPK activation, ELISA.
Assay type: biochemical
How it was run: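 Test compounds were added, and kinase activation was then detected by immunoassay following established kit procedures.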

Row | Structure (SMILES) | pEC50
1 | CC1(C)CN(C(=O)c2ccc(C(=O)NC3CCN(Cc4ccc(C#N)cc4)CC3)nc2)CCN1Cc1ccc(F)cc1 [Compound 125, N-(1-(4-cyanobenzyl)piperidin-4-yl)-5-(4-(4-fluorobenzyl)-3,3-dimethylpiperazine-1-carbonyl)picolinamide] | > 6.30
2 | N#Cc1ccc(CC2CCN(C(=O)c3ccc(C(=O)NC4CCN(Cc5ccc(C#N)cc5)CC4)nc3)CC2)cc1 [Compound 128, N-(1-(4-cyanobenzyl)piperidin-4-yl)-5-(4-(4-cyanobenzyl)piperidine-1-carbonyl)picolinamide] | > 6.30
3 | COc1ccc(C(=O)C2CCN(C(=O)c3ccc(C(=O)NC4CCN(Cc5ccc(C#N)cc5)CC4)nc3)CC2)cc1 [Compound 129, N-(1-(4-cyanobenzyl)piperidin-4-yl)-5-(4-(4-methoxybenzoyl)piperidine-1-carbonyl)picolinamide] | > 6.30
4 | CC(C)(c1ccccc1)N1CCN(C(=O)c2ccc(C(=O)NC3CCN(Cc4ccc(C#N)cc4)CC3)nc2)CC1 [Compound 133, N-(1-(4-cyanobenzyl)piperidin-4-yl)-5-(4-(2-phenylpropan-2-yl)piperazine-1-carbonyl)picolinamide] | > 6.30
5 | N#Cc1ccc(CN2CCC(NC(=O)c3ccc(C(=O)N4CCC(C(=O)c5ccc(F)cc5)CC4)cn3)CC2)cc1 [Compound 136, N-(1-(4-cyanobenzyl)piperidin-4-yl)-5-(4-(4-fluorobenzoyl)piperidine-1-carbonyl)picolinamide] | > 6.30
6 | N#Cc1ccc(CN2CCC(NC(=O)c3ccc(NC4CCN(c5ccc(Cl)cc5)CC4)cn3)CC2)cc1 [Compound 139, 5-(1-(4-chlorophenyl)piperidin-4-ylamino)-N-(1-(4-cyanobenzyl)piperidin-4-yl)picolinamide] | > 6.30

Further lines, results first:

Row | pEC50 | Structure (SMILES)
7 | > 6.30 | N#Cc1ccc(CN2CC[C@H](NC(=O)c3ccc(C(=O)N4CCN(Cc5ccc(F)cc5)CC4)cn3)C2)cc1 [Compound 123, (S)-N-(1-(4-cyanobenzyl)pyrrolidin-3-yl)-5-(4-(4-fluorobenzyl)piperazine-1-carbonyl)picolinamide]
8 | > 6.30 | N#Cc1ccc(CN2CCC(NC(=O)c3ccc(NC4CCN(c5ccccc5)CC4)cn3)CC2)cc1 [Compound 126, N-(1-(4-cyanobenzyl)piperidin-4-yl)-5-(1-phenylpiperidin-4-ylamino)picolinamide]
9 | > 6.30 | N#Cc1ccc(CN2CCC(NC(=O)c3ccc(C(=O)N4CCC(Cc5ccc(F)cc5)CC4)cn3)CC2)cc1 [Compound 130, N-(1-(4-cyanobenzyl)piperidin-4-yl)-5-(4-(4-fluorobenzyl)piperidine-1-carbonyl)picolinamide]
10 | > 6.30 | COc1ccc(CC2CCN(C(=O)c3ccc(C(=O)NC4CCN(Cc5ccc(C#N)cc5)CC4)nc3)CC2)cc1 [Compound 131, N-(1-(4-cyanobenzyl)piperidin-4-yl)-5-(4-(4-methoxybenzyl)piperidine-1-carbonyl)picolinamide]
11 | > 6.30 | N#Cc1ccc(CN2CCC(NC(=O)c3ccc(C(=O)N4CCC(c5ccc(Cl)cc5)CC4)cn3)CC2)cc1 [Compound 134, 5-(4-(4-chlorophenyl)piperidine-1-carbonyl)-N-(1-(4-cyanobenzyl)piperidin-4-yl)picolinamide]
12 | > 6.30 | N#Cc1ccc(CN2CCC(NC(=O)c3ccc(C(=O)N4CCC(Oc5ccc(C#N)cc5)CC4)cn3)CC2)cc1 [Compound 135, N-(1-(4-cyanobenzyl)piperidin-4-yl)-5-(4-(4-cyanophenoxy)piperidine-1-carbonyl)picolinamide]
13 | > 6.30 | N#Cc1ccc(CN2CCC(NC(=O)c3ccc(C(=O)N4CCCC(Oc5ccc(C#N)cc5)C4)cn3)CC2)cc1 (centres unmarked) [Compound 137, N-(1-(4-cyanobenzyl)piperidin-4-yl)-5-(3-(4-cyanophenoxy)piperidine-1-carbonyl)picolinamide]
14 | > 6.30 | N#Cc1ccc(CN2CCC(NC(=O)c3ccc(C(=O)N4CCC(C(F)c5ccc(F)cc5)CC4)cn3)CC2)cc1 (centres unmarked) [Compound 138, N-(1-(4-cyanobenzyl)piperidin-4-yl)-5-(4-(fluoro(4-fluorophenyl)methyl)piperidine-1-carbonyl)picolinamide]
